Results: publication PMC7101356, “Cross-site and cross-platform variability of automated patch clamp assessments of drug effects on human cardiac currents in recombinant cells” (Scientific Reports, 2020)
pIC50: −log10 of the molar value.

Columns and labels:
peak hNav1.5 = biological target: T1, peak hNav1.5 (Homo sapiens, UniProt Q14524); assay: Automated patch clamp, peak hNav1.5 current block; format: cell-based
T1 construct: expressed in transfected cells; host or cells: HEK293 or CHO, depending on site
Description: Peak current was measured during the depolarizing step to −15 mV. Leak current was measured after applying a saturating concentration of a blocker such as lidocaine (2 mM) at the end of each experiment to completely block hNav1.5 current.
Concentration-response relationships for each test article were independently investigated, i.e., each cell received only one test article, typically evaluating multiple concentrations in a cumulative fashion (lowest to highest concentrations). However, some platforms tested only one concentration per well. Each concentration response was based on a minimum of four concentrations, with a minimum of three wells used for each concentration. In cases of high variability, more cells per concentration were recorded. Prior to drug addition, cells received an addition of vehicle to measure non-test article-related effects such as addition artifacts. At the end of the experiment, a supramaximal concentration of a known inhibitory reference compound was applied to assess leak current and appropriate responsiveness of the test system.
(§1) The steady state current at each concentration was used to determine the concentration-response relationships. Mean concentration-response data were fitted to a standard sigmoidal four-parameter logistic equation (GraphPad Prism 7; GraphPad Inc., La Jolla, CA) of the form: Y=Bottom+(Top−Bottom)/(1+10^∧(LogIC50−X)∗HillSlope) where Y is the current inhibition (in % of pre-drug control), X is the logarithm of drug concentration, and IC50 is the drug concentration producing half-maximal current inhibition. Curve fitting was performed using the following constraints: Top = 100%, Bottom = 0%, Hill Slope <2. No curve fitting was performed in cases with an obvious lack of a concentration-dependent current inhibition and/or small effect size (approximately ≤20%).

hCav1.2 = hCav1.2 (Homo sapiens, UniProt Q13936); assay: Automated patch clamp, hCav1.2 current block; settings: for pIC50: log IC50, half-maximal inhibitory concentration
Description: Peak current was measured during the step to 0 mV. Leak current was measured after applying a saturating concentration of a blocker such as cadmium (200 µM) at the end of each experiment to completely block hCav1.2 current.
Concentration-response relationships for each test article were independently investigated, i.e., each cell received only one test article, typically evaluating multiple concentrations in a cumulative fashion (lowest to highest concentrations). However, some platforms tested only one concentration per well. Each concentration response was based on a minimum of four concentrations, with a minimum of three wells used for each concentration. In cases of high variability, more cells per concentration were recorded. Prior to drug addition, cells received an addition of vehicle to measure non-test article-related effects such as addition artifacts. At the end of the experiment, a supramaximal concentration of a known inhibitory reference compound was applied to assess leak current and appropriate responsiveness of the test system. While it was recommended that a separate group of cells (n ≥ 3) be recorded for each experimental day to determine the baseline response to vehicle and to address day-to-day variability, this was not verified.
These criteria were applied to all APC platforms.
as §1

late hNav1.5 = biological target: T2, late hNav1.5 (Homo sapiens, UniProt Q14524); assay: Automated patch clamp, late hNav1.5 current block (ATX-II activated); format: cell-based
T2 construct: expressed in transfected cells; host or cells: HEK293 or CHO, depending on site

[1] = based on CiPA evaluations; cited from earlier work
hERG = hERG (Homo sapiens, UniProt Q12809); assay: Automated patch clamp, hERG current block, Milnes protocol (site s06); format: cell-based; design: expressed in transfected cells; host or cells: HEK293 or CHO, depending on site (site s06, Milnes protocol: HEK293); settings: s06_p4, HEK293, 22–24 °C
Excerpt: Thus, a single test site (s06) elicited hERG current with a 10-s depolarizing voltage step from −80 mV to 0 mV every 25 s (Milnes protocol, see Milnes et al.[14]).
as §1
This protocol consists of a set of two 25-s-long pulse protocols, with one protocol (“Pulse”) containing a prolonged 10-s-long depolarizing test pulse (0 mV) followed by a 14-s-long return pulse to −80 mV, and a second protocol “No-Pulse” consisting of the same pulse structure without the depolarizing test pulse[18].

[2] = site_platform s13_p2, 1.00E-04 mol/L
[3] = site_platform s13_p2, 1.00E-06 mol/L
[4] = site_platform s14_p1, 1.00E-04 mol/L
[5] = site_platform s14_p1, 1.00E-06 mol/L

T1 sequence (Q14524 whole entry): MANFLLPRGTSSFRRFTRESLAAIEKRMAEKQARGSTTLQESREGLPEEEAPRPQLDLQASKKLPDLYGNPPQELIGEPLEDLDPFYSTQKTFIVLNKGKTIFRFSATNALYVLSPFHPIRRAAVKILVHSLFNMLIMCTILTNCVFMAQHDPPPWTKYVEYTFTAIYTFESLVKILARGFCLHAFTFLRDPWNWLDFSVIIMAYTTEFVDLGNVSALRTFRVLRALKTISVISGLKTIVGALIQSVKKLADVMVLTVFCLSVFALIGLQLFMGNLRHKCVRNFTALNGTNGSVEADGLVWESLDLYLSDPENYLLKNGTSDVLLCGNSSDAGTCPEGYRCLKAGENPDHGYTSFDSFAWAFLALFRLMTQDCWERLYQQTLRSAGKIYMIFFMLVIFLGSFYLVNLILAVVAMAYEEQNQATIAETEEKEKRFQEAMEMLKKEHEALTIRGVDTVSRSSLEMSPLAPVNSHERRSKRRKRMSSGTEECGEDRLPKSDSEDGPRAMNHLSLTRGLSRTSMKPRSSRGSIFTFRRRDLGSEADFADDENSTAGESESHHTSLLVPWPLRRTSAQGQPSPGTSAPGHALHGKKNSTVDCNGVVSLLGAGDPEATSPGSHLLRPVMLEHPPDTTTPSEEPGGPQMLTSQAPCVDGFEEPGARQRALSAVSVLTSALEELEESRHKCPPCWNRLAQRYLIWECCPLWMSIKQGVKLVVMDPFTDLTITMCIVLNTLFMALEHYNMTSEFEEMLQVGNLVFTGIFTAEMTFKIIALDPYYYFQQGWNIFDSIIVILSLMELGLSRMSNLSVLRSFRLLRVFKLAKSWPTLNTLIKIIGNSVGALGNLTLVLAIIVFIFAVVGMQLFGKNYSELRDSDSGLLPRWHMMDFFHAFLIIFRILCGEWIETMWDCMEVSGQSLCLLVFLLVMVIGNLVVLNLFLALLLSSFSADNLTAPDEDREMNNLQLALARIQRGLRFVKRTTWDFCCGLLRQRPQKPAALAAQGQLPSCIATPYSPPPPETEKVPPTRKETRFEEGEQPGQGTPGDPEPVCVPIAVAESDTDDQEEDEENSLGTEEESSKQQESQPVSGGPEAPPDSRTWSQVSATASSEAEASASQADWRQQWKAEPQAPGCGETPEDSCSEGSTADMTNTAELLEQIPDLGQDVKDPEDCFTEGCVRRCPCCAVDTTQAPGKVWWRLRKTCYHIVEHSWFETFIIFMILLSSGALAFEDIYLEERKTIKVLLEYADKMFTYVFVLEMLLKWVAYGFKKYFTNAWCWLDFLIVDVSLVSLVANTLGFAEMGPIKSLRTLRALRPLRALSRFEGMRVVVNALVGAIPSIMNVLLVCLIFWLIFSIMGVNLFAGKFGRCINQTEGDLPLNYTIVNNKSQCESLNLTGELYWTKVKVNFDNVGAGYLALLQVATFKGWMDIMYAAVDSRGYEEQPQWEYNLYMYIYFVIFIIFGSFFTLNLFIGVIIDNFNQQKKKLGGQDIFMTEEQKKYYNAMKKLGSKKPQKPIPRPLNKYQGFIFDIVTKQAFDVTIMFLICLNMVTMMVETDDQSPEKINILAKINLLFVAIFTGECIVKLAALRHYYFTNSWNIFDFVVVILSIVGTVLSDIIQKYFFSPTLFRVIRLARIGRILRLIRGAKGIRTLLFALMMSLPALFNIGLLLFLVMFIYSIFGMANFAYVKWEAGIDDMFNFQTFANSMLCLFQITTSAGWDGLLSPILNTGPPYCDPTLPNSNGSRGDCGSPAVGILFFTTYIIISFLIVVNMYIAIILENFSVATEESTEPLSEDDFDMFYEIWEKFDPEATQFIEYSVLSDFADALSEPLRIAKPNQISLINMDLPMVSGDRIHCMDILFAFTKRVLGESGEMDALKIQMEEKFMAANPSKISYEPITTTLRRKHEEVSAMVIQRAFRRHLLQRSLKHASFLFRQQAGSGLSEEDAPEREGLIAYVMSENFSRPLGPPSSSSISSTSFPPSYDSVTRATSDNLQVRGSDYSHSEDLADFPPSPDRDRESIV
T2 sequence (Q14524 whole entry): as above

Cc1cccc(C)c1OCC(C)N (stereo not shown) [mex, mexiletine]
nH, Hill slope, peak hNav1.5 inhibition (peak hNav1.5; site_platform s10_p3): 0.84
Peak hNav1.5 Na+ current inhibition, Mean (peak hNav1.5; site_platform s10_p3, 1.00E-04 mol/L): 53.9%
Peak hNav1.5 Na+ current inhibition, Mean (peak hNav1.5; site_platform s10_p3, 1.00E-06 mol/L): 6.6%
nH, Hill slope, peak hNav1.5 inhibition (peak hNav1.5; site_platform s11_p1): 0.56
Peak hNav1.5 Na+ current inhibition, Mean (peak hNav1.5; site_platform s11_p1, 1.00E-04 mol/L): 50.8%
Peak hNav1.5 Na+ current inhibition, Mean (peak hNav1.5; site_platform s11_p1, 1.00E-06 mol/L): 10.7%
nH, Hill slope, peak hNav1.5 inhibition (peak hNav1.5; site_platform s12_p2): 0.72
Peak hNav1.5 Na+ current inhibition, Mean (peak hNav1.5; site_platform s12_p2, 1.00E-04 mol/L): 58.7%
Peak hNav1.5 Na+ current inhibition, Mean (peak hNav1.5; site_platform s12_p2, 1.00E-06 mol/L): 4.9%
nH, Hill slope, peak hNav1.5 inhibition (peak hNav1.5; site_platform s13_p2): 0.89
Peak hNav1.5 Na+ current inhibition, Mean (peak hNav1.5; [2]): 50.5%
Peak hNav1.5 Na+ current inhibition, Mean (peak hNav1.5; [3]): 2.3%
nH, Hill slope, peak hNav1.5 inhibition (peak hNav1.5; site_platform s14_p1): 0.84
Peak hNav1.5 Na+ current inhibition, Mean (peak hNav1.5; [4]): 65.7%
Peak hNav1.5 Na+ current inhibition, Mean (peak hNav1.5; [5]): 6.3%
nH, Hill slope, peak hNav1.5 inhibition (peak hNav1.5; site_platform s15_p1): 0.56
Peak hNav1.5 Na+ current inhibition, Mean (peak hNav1.5; site_platform s15_p1, 1.00E-04 mol/L): 88.2%
Peak hNav1.5 Na+ current inhibition, Mean (peak hNav1.5; site_platform s15_p1, 1.00E-06 mol/L): 30.6%
nH, Hill slope, peak hNav1.5 inhibition (peak hNav1.5; site_platform s16_p3): 0.69
Peak hNav1.5 Na+ current inhibition, Mean (peak hNav1.5; site_platform s16_p3, 1.00E-04 mol/L): 43.0%
Peak hNav1.5 Na+ current inhibition, Mean (peak hNav1.5; site_platform s16_p3, 1.00E-06 mol/L): 5.6%
nH, Hill slope, peak hNav1.5 inhibition (peak hNav1.5; site_platform s17_p1): 0.83
Peak hNav1.5 Na+ current inhibition, Mean (peak hNav1.5; site_platform s17_p1, 1.00E-04 mol/L): 75.6%
Peak hNav1.5 Na+ current inhibition, Mean (peak hNav1.5; site_platform s17_p1, 1.00E-06 mol/L): 10.3%
nH, Hill slope, peak hNav1.5 inhibition (peak hNav1.5; site_platform s18_p1): 0.98
Peak hNav1.5 Na+ current inhibition, Mean (peak hNav1.5; site_platform s18_p1, 1.00E-04 mol/L): 83.9%
Peak hNav1.5 Na+ current inhibition, Mean (peak hNav1.5; site_platform s18_p1, 1.00E-06 mol/L): 6.1%
nH, Hill slope, peak hNav1.5 inhibition (peak hNav1.5; site_platform s19_p3): 0.51
Peak hNav1.5 Na+ current inhibition, Mean (peak hNav1.5; site_platform s19_p3, 1.00E-04 mol/L): 55.6%
Peak hNav1.5 Na+ current inhibition, Mean (peak hNav1.5; site_platform s19_p3, 1.00E-06 mol/L): 12.4%
pIC50 (hCav1.2; site s01_p1): 3.43
pIC50 (hCav1.2; site s06_p4): 3.75
pIC50 (hCav1.2; site s14_p1): 3.63
pIC50 (hCav1.2; site s16_p3): 3.60
pIC50 (hCav1.2; site s18_p1): 3.79
nH, Hill slope (hCav1.2; site s01_p1): 0.60
Peak hCav1.2 Ca2+ current inhibition, Mean (hCav1.2; site s01_p1, 1.00E-04 mol/L): 34.0%
Peak hCav1.2 Ca2+ current inhibition, Mean (hCav1.2; site s01_p1, 1.00E-06 mol/L): 10.1%
log IC50, half-maximal inhibitory concentration (hCav1.2; site s02_p2, corrected for rundown): no inh.
Peak hCav1.2 Ca2+ current inhibition, Mean (hCav1.2; site s02_p2, corrected for rundown, 1.00E-04 mol/L): 1.8%
Peak hCav1.2 Ca2+ current inhibition, Mean (hCav1.2; site s02_p2, corrected for rundown, 1.00E-06 mol/L): -11.1%
nH, Hill slope (hCav1.2; site s06_p4): 0.87
Peak hCav1.2 Ca2+ current inhibition, Mean (hCav1.2; site s06_p4, 1.00E-04 mol/L): 39.1%
Peak hCav1.2 Ca2+ current inhibition, Mean (hCav1.2; site s06_p4, 1.00E-06 mol/L): 0.5%
log IC50, half-maximal inhibitory concentration (hCav1.2; site s11_p1): no inh.
Peak hCav1.2 Ca2+ current inhibition, Mean (hCav1.2; site s11_p1, 1.00E-04 mol/L): 22.9%
Peak hCav1.2 Ca2+ current inhibition, Mean (hCav1.2; site s11_p1, 1.00E-06 mol/L): 12.9%
nH, Hill slope (hCav1.2; site s14_p1): 2.00
Peak hCav1.2 Ca2+ current inhibition, Mean (hCav1.2; site s14_p1, 1.00E-04 mol/L): 16.2%
Peak hCav1.2 Ca2+ current inhibition, Mean (hCav1.2; site s14_p1, 1.00E-06 mol/L): -17.7%
nH, Hill slope (hCav1.2; site s16_p3): 0.80
Peak hCav1.2 Ca2+ current inhibition, Mean (hCav1.2; site s16_p3, 1.00E-04 mol/L): 31.7%
Peak hCav1.2 Ca2+ current inhibition, Mean (hCav1.2; site s16_p3, 1.00E-06 mol/L): -0.3%
nH, Hill slope (hCav1.2; site s18_p1): 1.07
Peak hCav1.2 Ca2+ current inhibition, Mean (hCav1.2; site s18_p1, 1.00E-04 mol/L): 35.7%
Peak hCav1.2 Ca2+ current inhibition, Mean (hCav1.2; site s18_p1, 1.00E-06 mol/L): 2.3%
nH, Hill slope, late hNav1.5 inhibition (late hNav1.5; site_platform s06_p4): 0.97
Late hNav1.5 Na+ current inhibition, Mean (late hNav1.5; site_platform s06_p4, 1.00E-04 mol/L): 96.2%
Late hNav1.5 Na+ current inhibition, Mean (late hNav1.5; site_platform s06_p4, 1.00E-06 mol/L): 18.9%
nH, Hill slope, late hNav1.5 inhibition (late hNav1.5; site_platform s07_p6): 1.16
Late hNav1.5 Na+ current inhibition, Mean (late hNav1.5; site_platform s07_p6, 1.00E-04 mol/L): 89.6%
Late hNav1.5 Na+ current inhibition, Mean (late hNav1.5; site_platform s07_p6, 1.00E-06 mol/L): 5.5%
nH, Hill slope, late hNav1.5 inhibition (late hNav1.5; site_platform s13_p2): 0.53
Late hNav1.5 Na+ current inhibition, Mean (late hNav1.5; [2]): 76.8%
Late hNav1.5 Na+ current inhibition, Mean (late hNav1.5; [3]): 26.4%
nH, Hill slope, late hNav1.5 inhibition (late hNav1.5; site_platform s14_p1): 4.08
Late hNav1.5 Na+ current inhibition, Mean (late hNav1.5; [4]): 98.8%
Late hNav1.5 Na+ current inhibition, Mean (late hNav1.5; [5]): -15.4%
TdP Risk Category [1]: Low
hERG K+ current nH, Hill slope (hERG): 1.02
hERG K+ current inhibition, Mean, at maximal concentration (hERG; max conc [mol/L]: bep 3.00E-07, cpz 3.00E-06, cis 3.00E-07, dil 1.00E-04, dof 1.00E-07, mex 1.00E-04, ond 1.00E-05, qui 1.00E-05, ran 1.00E-04, sot 3.00E-04, ter 3.00E-07, ver 1.00E-06): 71.6%
hERG K+ current inhibition, Mean, at minimal concentration (hERG; min conc [mol/L]: bep 1.00E-08, cpz 1.00E-07, cis 1.00E-09, dil 3.00E-06, dof 1.00E-09, mex 1.00E-06, ond 3.00E-07, qui 1.00E-07, ran 3.00E-06, sot 1.00E-05, ter 1.00E-08, ver 3.00E-08): -3.4%
IC50 (hERG; read-out: hERG K+ current log IC50 (converted)): 37.2 µM
